Test results published in BindingDB's records for doi:10.1007/s00213-002-1073-7 (WestfÄLische Wilhelms-Universit&Auml, 2002).
Each block holds one molecule with its values, some of them ahead of it.

Experiments:
[1] = biological target: T1, 5-hydroxytryptamine receptor 1A (Homo sapiens, UniProt P08908)
T1 sequence (P08908 whole entry): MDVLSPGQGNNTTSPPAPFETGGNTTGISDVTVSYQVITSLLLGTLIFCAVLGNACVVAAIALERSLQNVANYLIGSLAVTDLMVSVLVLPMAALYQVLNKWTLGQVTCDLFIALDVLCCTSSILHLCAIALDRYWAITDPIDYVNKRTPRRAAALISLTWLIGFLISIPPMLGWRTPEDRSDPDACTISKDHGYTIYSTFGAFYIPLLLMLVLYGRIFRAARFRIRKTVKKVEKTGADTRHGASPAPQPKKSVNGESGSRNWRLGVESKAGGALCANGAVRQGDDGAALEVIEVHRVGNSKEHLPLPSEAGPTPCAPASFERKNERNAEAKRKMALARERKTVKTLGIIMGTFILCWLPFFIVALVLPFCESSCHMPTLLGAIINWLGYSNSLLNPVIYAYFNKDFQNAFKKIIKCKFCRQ

[2] = biological target: 5-hydroxytryptamine receptor 7 (Homo sapiens, UniProt P34969)
D(2) dopamine receptor = D(2) dopamine receptor (Rattus norvegicus, UniProt P61169)
[3] = biological target: Beta-1 adrenergic receptor (Rattus norvegicus, UniProt P18090)
[4] = biological target: Muscarinic acetylcholine receptor M3 (Homo sapiens, UniProt P20309)
D(3) dopamine receptor = D(3) dopamine receptor (Rattus norvegicus, UniProt P19020)
[5] = biological target: 5-hydroxytryptamine receptor 5A (Homo sapiens, UniProt P47898)
D(1B) dopamine receptor = D(1B) dopamine receptor (Homo sapiens, UniProt P21918)
[6] = biological target: T2, Alpha-2B adrenergic receptor (Homo sapiens, UniProt P18089)
T2 sequence (P18089 whole entry): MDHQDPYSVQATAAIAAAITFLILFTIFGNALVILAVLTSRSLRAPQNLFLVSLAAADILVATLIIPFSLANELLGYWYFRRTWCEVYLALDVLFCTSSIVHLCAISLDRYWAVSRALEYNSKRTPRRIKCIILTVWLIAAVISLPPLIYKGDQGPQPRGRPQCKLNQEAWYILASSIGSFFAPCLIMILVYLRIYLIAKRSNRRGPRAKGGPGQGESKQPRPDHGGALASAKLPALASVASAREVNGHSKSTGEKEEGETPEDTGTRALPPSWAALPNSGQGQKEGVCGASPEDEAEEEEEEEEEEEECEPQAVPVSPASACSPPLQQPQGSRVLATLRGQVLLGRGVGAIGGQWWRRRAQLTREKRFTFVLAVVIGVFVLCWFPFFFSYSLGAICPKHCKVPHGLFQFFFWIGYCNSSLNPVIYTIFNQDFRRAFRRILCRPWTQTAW

[7] = biological target: T3, Alpha-1B adrenergic receptor (Homo sapiens, UniProt P35368)
T3 sequence (P35368 whole entry): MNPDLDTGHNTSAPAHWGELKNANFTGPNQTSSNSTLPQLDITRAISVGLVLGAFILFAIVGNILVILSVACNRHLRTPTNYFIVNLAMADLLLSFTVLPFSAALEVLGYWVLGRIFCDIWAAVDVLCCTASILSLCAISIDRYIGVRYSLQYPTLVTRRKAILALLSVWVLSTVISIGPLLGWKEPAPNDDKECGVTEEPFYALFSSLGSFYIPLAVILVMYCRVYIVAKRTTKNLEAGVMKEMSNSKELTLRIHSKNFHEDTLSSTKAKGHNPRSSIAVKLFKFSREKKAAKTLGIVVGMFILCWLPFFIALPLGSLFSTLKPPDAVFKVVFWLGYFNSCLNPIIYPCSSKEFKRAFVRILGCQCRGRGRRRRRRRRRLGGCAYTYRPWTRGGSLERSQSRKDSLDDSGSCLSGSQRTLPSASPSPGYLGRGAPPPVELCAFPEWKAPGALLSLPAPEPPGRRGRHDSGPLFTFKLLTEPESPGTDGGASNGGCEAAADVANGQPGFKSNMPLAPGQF

Vasopressin V1b receptor = biological target: T4, Vasopressin V1b receptor (Homo sapiens, UniProt P47901)
T4 sequence (P47901 whole entry): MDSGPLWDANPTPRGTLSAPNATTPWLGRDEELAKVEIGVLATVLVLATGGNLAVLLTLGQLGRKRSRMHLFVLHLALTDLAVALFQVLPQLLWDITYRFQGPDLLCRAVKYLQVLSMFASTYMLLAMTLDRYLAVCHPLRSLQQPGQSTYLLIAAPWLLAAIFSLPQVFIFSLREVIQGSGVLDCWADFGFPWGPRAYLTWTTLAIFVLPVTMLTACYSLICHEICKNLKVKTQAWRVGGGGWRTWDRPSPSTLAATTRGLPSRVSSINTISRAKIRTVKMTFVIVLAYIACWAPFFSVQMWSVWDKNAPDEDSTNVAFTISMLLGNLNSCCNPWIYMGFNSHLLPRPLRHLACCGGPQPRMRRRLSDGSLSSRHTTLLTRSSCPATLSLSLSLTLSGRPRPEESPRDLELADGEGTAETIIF

D(4) dopamine receptor = biological target: T5, D(4) dopamine receptor (Rattus norvegicus, UniProt P30729)
T5 sequence (P30729 whole entry): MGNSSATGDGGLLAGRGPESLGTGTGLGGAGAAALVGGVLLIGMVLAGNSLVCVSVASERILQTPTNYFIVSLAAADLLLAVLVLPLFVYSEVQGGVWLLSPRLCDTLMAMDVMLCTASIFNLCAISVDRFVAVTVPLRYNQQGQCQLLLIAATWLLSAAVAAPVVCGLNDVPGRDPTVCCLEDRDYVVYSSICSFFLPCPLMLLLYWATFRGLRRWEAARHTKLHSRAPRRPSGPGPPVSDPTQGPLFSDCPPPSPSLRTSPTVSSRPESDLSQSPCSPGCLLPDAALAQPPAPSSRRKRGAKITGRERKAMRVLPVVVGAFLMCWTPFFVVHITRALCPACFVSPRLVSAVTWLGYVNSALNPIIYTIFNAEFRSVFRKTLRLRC

Histamine H1 receptor = Histamine H1 receptor (Rattus norvegicus, UniProt P31390)
Chain of Histamine H1 receptor (P31390 whole entry): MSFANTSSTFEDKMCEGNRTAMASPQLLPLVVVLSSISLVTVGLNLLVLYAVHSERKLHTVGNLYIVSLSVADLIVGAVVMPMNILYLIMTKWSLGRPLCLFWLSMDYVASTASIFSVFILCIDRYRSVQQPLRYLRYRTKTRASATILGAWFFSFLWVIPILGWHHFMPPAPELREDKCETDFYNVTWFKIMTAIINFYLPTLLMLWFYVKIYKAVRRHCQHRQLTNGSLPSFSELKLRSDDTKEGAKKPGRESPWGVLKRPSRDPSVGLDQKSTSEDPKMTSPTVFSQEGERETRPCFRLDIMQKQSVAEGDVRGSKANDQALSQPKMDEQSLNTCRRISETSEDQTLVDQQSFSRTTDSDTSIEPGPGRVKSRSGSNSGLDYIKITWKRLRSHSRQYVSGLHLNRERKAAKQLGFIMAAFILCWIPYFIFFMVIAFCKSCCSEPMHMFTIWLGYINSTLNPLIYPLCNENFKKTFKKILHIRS

Chain of 5-hydroxytryptamine receptor 5A (P47898 whole entry): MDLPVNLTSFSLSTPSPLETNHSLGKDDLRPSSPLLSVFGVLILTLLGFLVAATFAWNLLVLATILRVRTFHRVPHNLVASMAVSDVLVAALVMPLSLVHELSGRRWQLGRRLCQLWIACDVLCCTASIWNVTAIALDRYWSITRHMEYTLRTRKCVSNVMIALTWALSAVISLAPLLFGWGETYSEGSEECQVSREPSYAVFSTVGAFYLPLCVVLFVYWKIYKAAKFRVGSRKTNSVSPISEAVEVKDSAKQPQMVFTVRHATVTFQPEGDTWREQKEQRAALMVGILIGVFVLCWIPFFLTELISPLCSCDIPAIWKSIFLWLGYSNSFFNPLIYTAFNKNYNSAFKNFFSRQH
Chain of Muscarinic acetylcholine receptor M3 (P20309 whole entry): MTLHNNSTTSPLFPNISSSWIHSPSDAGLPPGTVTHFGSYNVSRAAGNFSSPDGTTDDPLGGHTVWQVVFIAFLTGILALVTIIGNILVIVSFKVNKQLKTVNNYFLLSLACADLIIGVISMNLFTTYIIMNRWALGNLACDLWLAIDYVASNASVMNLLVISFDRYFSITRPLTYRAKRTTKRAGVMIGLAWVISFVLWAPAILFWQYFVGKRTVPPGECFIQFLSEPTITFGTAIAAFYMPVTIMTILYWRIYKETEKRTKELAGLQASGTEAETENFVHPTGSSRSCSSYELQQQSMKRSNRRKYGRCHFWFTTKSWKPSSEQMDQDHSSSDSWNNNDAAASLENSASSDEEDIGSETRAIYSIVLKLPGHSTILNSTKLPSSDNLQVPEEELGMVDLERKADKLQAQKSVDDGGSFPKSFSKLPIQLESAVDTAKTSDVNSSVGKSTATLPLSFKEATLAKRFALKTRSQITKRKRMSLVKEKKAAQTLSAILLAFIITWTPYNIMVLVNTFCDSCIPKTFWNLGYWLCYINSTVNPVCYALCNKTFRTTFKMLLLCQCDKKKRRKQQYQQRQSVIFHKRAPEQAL
Chain of D(2) dopamine receptor (P61169 whole entry): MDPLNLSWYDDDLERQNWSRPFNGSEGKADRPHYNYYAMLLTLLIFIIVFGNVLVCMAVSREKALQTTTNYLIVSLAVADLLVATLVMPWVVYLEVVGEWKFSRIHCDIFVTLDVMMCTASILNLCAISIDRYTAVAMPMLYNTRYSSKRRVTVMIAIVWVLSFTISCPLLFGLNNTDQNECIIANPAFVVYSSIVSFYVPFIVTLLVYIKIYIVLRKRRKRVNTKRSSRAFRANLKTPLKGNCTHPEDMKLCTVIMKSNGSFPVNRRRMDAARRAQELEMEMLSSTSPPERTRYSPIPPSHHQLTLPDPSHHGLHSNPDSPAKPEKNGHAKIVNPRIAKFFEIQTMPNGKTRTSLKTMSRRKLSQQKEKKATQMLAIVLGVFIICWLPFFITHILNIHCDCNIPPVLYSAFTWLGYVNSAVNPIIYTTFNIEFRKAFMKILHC
Chain of D(1B) dopamine receptor (P21918 whole entry): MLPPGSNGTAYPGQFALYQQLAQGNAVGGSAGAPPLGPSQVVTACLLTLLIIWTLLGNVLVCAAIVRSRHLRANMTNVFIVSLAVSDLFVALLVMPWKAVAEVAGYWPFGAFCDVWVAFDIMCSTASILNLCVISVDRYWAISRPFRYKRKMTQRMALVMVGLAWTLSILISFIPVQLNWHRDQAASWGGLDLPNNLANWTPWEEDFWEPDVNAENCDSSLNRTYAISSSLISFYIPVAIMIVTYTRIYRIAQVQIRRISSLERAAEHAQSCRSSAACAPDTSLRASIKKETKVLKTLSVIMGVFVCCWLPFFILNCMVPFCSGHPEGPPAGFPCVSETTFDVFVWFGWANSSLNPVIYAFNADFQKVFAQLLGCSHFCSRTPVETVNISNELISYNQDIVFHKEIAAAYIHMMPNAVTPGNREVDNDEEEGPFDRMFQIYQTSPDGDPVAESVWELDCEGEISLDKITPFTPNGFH
Chain of D(3) dopamine receptor (P19020 whole entry): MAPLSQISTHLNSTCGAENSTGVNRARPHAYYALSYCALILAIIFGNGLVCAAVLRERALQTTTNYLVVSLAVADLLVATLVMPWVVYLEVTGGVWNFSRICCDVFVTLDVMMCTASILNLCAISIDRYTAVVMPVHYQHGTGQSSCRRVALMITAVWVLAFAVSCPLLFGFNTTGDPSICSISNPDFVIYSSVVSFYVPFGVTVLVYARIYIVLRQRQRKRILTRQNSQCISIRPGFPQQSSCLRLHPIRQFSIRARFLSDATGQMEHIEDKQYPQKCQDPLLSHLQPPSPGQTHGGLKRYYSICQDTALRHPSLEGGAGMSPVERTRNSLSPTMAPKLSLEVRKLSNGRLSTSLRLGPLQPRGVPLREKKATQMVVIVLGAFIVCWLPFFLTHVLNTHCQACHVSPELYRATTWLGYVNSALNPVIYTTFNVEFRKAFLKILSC
Chain of Beta-1 adrenergic receptor (P18090 whole entry): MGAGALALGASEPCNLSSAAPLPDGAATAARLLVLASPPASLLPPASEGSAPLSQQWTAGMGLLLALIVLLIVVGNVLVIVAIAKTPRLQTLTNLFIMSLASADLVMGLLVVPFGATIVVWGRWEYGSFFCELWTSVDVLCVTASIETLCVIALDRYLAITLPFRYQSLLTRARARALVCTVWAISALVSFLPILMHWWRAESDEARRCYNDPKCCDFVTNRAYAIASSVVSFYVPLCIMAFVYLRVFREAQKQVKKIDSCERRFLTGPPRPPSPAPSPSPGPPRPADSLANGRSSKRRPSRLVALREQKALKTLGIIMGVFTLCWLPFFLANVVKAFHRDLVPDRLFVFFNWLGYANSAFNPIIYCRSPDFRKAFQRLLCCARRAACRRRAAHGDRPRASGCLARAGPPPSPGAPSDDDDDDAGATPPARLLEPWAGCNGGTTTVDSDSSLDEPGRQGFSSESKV
Chain of 5-hydroxytryptamine receptor 7 (P34969 whole entry): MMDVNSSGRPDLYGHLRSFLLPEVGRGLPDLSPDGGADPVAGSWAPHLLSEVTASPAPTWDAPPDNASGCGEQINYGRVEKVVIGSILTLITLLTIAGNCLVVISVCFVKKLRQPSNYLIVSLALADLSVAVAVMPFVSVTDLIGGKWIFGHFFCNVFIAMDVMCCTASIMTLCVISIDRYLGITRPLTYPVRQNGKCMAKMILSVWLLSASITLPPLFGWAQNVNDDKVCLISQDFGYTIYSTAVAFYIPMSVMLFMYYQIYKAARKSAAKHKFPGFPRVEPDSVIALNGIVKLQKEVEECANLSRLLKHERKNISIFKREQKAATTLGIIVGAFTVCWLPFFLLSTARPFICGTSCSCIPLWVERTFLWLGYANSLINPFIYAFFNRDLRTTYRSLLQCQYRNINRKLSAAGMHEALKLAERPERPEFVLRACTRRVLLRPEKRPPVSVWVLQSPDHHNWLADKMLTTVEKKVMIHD

Compound: CC(C)=CCC[C@]1(C)[C@@H](CC=C(C)C)C[C@]2(CC=C(C)C)C(=O)C(CC=C(C)C)C(=O)[C@]1(C(=O)C(C)C)C2=O (stereo partly drawn)
Ki [1]: > 10 µM
Ki [2]: > 10 µM
Ki (D(2) dopamine receptor): > 10 µM
Ki [3]: > 10 µM
Ki [4]: > 10 µM
Ki (D(3) dopamine receptor): > 10 µM
Ki [5]: > 10 µM
Ki (D(1B) dopamine receptor): > 10 µM
Ki [6]: > 10 µM
Ki [7]: > 10 µM
Ki (Vasopressin V1b receptor): > 10 µM
Ki (D(4) dopamine receptor): > 10 µM
Ki (Histamine H1 receptor): > 10 µM

Compound: O=c1c(O)c(-c2ccc(O)c(O)c2)oc2cc(O)cc(O)c12 [2-(3,4-dihydroxyphenyl)-3,5,7-trihydroxy-chromone;hydrate]
Ki [1]: > 10 µM
Ki [2]: > 10 µM
Ki (D(2) dopamine receptor): > 10 µM
Ki [3]: > 10 µM
Ki [4]: > 10 µM
Ki (D(3) dopamine receptor): > 10 µM
Ki [5]: > 10 µM
Ki (D(1B) dopamine receptor): > 10 µM
Ki [6]: > 10 µM
Ki [7]: > 10 µM
Ki (Vasopressin V1b receptor): > 10 µM
Ki (D(4) dopamine receptor): 7.85 µM
Ki (Histamine H1 receptor): > 10 µM

Compound: C[C@@H]1O[C@@H](Oc2c(-c3ccc(O)c(O)c3)oc3cc(O)cc(=O)c-3c2O)[C@H](O)[C@H](O)[C@H]1O
Ki [1]: > 10 µM
Ki [2]: > 10 µM
Ki (D(2) dopamine receptor): > 10 µM
Ki [3]: > 10 µM
Ki [4]: > 10 µM
Ki (D(3) dopamine receptor): > 10 µM
Ki [5]: > 10 µM
Ki (D(1B) dopamine receptor): > 10 µM
Ki [6]: > 10 µM
Ki [7]: > 10 µM
Ki (Vasopressin V1b receptor): > 10 µM
Ki (D(4) dopamine receptor): > 10 µM
Ki (Histamine H1 receptor): > 10 µM

Second part, the molecule after the results:

Ki [1]: > 10 µM
Ki [2]: > 10 µM
Ki (D(2) dopamine receptor): > 10 µM
Ki [3]: > 10 µM
Ki [4]: > 10 µM
Ki (D(3) dopamine receptor): 1.24 µM
Ki [5]: > 10 µM
Ki (D(1B) dopamine receptor): > 10 µM
Ki [6]: > 10 µM
Ki [7]: > 10 µM
Ki (Vasopressin V1b receptor): > 10 µM
Ki (D(4) dopamine receptor): > 10 µM
Ki (Histamine H1 receptor): > 10 µM
Compound: O=c1cc(O)cc2oc(-c3ccc(O)c(-c4c(O)cc(O)c5c(=O)cc(-c6ccc(O)cc6)oc45)c3)cc(O)c1-2

Ki [1]: > 10 µM
Ki [2]: > 10 µM
Ki (D(2) dopamine receptor): > 10 µM
Ki [3]: > 10 µM
Ki [4]: > 10 µM
Ki (D(3) dopamine receptor): > 10 µM
Ki [5]: > 10 µM
Ki (D(1B) dopamine receptor): > 10 µM
Ki [6]: > 10 µM
Ki [7]: > 10 µM
Ki (Vasopressin V1b receptor): > 10 µM
Ki (D(4) dopamine receptor): > 10 µM
Ki (Histamine H1 receptor): > 10 µM
Compound: O=c1cc(O)cc2oc(-c3ccc(O)c(O)c3)c(OC3OC(CO)C(O)C(O)C3O)c(O)c1-2 (stereo not drawn) [NSC_5318390]

Ki [1]: > 10 µM
Ki [2]: > 10 µM
Ki (D(2) dopamine receptor): > 10 µM
Ki [3]: > 10 µM
Ki [4]: > 10 µM
Ki (D(3) dopamine receptor): > 10 µM
Ki [5]: > 10 µM
Ki (D(1B) dopamine receptor): > 10 µM
Ki [6]: > 10 µM
Ki [7]: > 10 µM
Ki (Vasopressin V1b receptor): > 10 µM
Ki (D(4) dopamine receptor): > 10 µM
Ki (Histamine H1 receptor): > 10 µM
Compound: C[C@@H]1O[C@@H](OC[C@H]2O[C@@H](Oc3c(-c4ccc(O)c(O)c4)oc4cc(O)cc(O)c4c3=O)[C@H](O)[C@@H](O)[C@@H]2O)[C@H](O)[C@H](O)[C@H]1O [3-Rhamnoglucosylquercetin]
